We go through one compound from paper PMC12657321, “Pre-clinical evaluation of a potent and effective Pin1-degrading agent in pancreatic cancer” (Molecular Therapy Oncology, 2025).

In one experiment the target is T1, human Pin1 (Homo sapiens, UniProt Q13526).
T1 construct: Residues 1–163 of human Pin1 were expressed with a thrombin cleavage site and a HisTag at the N-terminus; 6xHis (N); thrombin cleavage site (N); made in house; host or cells: E. coli
As to the kind of experiment: DELFIA displacement assay (biotinylated D-peptide / His-tagged Pin1). Format: binding. Conditions: DELFIA displacement of biotinylated D-peptide from His-tagged Pin1; compound incubation 6 h; ± standard error of duplicate measurements. As to the method:
To assess the ability of our agents to bind and inhibit Pin1, we developed a robust biochemical assay based on the dissociation-enhanced lanthanide fluorescent immunoassay (DELFIA) platform. In our implementation, we used a biotinylated form of a known Pin1-binding peptide (D-peptide) to monitor the ability of test agents to inhibit the interaction between Pin1 and the D-peptide at various incubation times, as described previously.[32] […] In addition, as mentioned above and reported recently, we tested the ability of the agents to reduce Pin1 thermal stability in vitro by thermal denaturation measurements.[32] […] Pin1 unfolding causes a nonspecific interaction between the water-quenched fluorescent dye and the protein’s exposed hydrophobic residues, resulting in increased fluorescence. A shift in the thermal denaturation temperature between the free and bound protein is interpreted as a stabilization or destabilization event induced by the test ligand. […] To further assess whether these agents could be suitable for in vivo efficacy studies, we also performed stability assays in aqueous buffer and in plasma from various species (Table S2, Figure S2). We tested the stability of our agents in plasma from multiple mouse strains as well as in human plasma (Figure S2), given the peptide nature of the compounds. […]

The target in the next experiment is T2, Pin1 in KPC cells (Mus musculus, UniProt Q9QUR7).
T2 construct: endogenous in cells; host or cells: KPC
T2 sequence (Q9QUR7 whole entry): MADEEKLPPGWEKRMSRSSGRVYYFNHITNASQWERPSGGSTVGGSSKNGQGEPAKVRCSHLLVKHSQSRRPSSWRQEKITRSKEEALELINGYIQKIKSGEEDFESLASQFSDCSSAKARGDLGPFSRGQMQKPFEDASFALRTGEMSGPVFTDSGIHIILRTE
As to the kind of experiment: Pin1 degradation by western blot in KPC cells. Format: cell-based. As to conditions: 0.5-15 μM for 24 h, Pin1 relative to β-actin. On the procedure: To ascertain that the plasma-stable agent 164B8 retained its ability to induce Pin1 degradation in cells, we tested it in three pancreatic cancer cell lines—human BxPC3 and MIA PaCa-2, and the mouse pancreatic cancer cell line KPC—using western blot analysis (Figure 2).
Figure 2 Degradation of Pin1 in different cell lines in response to 164B8 treatment BxPC3, MIA PaCa-2, and KPC were each treated with 0.1% DMSO and concentrations of 164B8 ranging between 0.5 and 15 μM for 24 h, and Pin1 levels were quantified with respect to β-actin using a specific anti-Pin1 antibody and western blotting (uncropped blots are reported in Figure S6).
At the end of the treatments, cells were lysed with a lysis buffer containing 20 mM Tris (pH 7.4), 1% Triton X-100, 5 mM EDTA, 0.1% sodium dodecyl sulfate (SDS), 1% IGEPAL, 0.5% sodium deoxycholate, 120 mM NaCl, and a protease inhibitor cocktail and PhosSTOP (Sigma-Aldrich). Lysates were then centrifuged at 16,000 × g for 20 min at 4°C, and the supernatants were collected. Protein concentrations were determined using the Pierce BCA Protein Assay Kit (Thermo Fisher Scientific) according to the manufacturer’s protocol. For traditional western blotting (Figure 2), samples were loaded onto precast Bis-Tris gels and subsequently transferred onto PVDF membranes. […]
(In general: Immunoblotting shows a protein as a band on a membrane.)

Molecules are shown by their SMILES. Non-standard residues stand in square brackets, D forms with d. Residues, ends and D or L forms follow the SMILES beside them. *: point of attachment. Trp(6-Cl) = N[C@@H](Cc1c[nH]c2cc(Cl)ccc12)C(=O)O; Pip = O=C(O)[C@@H]1CCCCN1; ClAc = O=C(CCl)*

T1 sequence (Q13526 whole entry, the tested form may be a part): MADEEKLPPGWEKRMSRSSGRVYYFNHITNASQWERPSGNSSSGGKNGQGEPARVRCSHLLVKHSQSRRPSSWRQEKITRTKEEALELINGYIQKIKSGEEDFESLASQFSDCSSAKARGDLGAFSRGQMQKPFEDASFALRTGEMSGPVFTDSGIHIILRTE

Consider `CNC(=O)[C@H](Cc1c[nH]c2ccccc12)NC(=O)[C@@H]1CCCCN1C(=O)[C@H](Cc1c[nH]c2cc(Cl)ccc12)NC(=O)CCl` [164B8] (ClAc-[Trp(6-Cl)]-[Pip]-Trp-NHMe), for which, on human Pin1, the IC50 stood at 4.65 ± 0.04 nM. Besides, the “DC50 of Pin1 degradation” value on Pin1 in KPC cells is on record as “sub-micromolar”.

In general, IC50 refers to the point on the concentration scale where inhibition reaches its midpoint. Read a low IC50 as higher potency.
